Laboratory results published in paper doi:10.1101/2024.08.25.609621 (bioRxiv, 2024).
Where “and” joins values, the source holds several entries; their conditions need not be identical. Equal values may be shown once. Read-outs that look alike come from different tables or passages of the source.

Experiments:
[1] = biological target: SARS-CoV-2 NSP3 macrodomain (Mac1), P43 crystal form (Severe acute respiratory syndrome coronavirus 2, UniProt P0DTD1); assay type: binding; conditions: for 1-BDC: PanDDA background density correction; for Total number of conformations: ligand conformations modeled in Mac1 crystal structure; for X-ray crystallography: Binding site: site where the ligand is bound in the X-ray crystal structure
[2] = biological target: SARS-CoV-2 NSP3 macrodomain (Mac1) (Severe acute respiratory syndrome coronavirus 2, UniProt P0DTD1); assay: biochemical; assay type: binding; conditions: for SARS CoV-2 macrodomain HTRF assay: Hillslope: dose-response fit
[3] = TRUE = crystal structure with ligand determined
[4] = crystal soak concentration 20 mM
[5] = crystal soak concentration 20 mM, P43 crystals
[6] = crystal soak, soak concentration 10 mM
[7] = occupancy estimate from PanDDA BDC
[8] = site of Mac1 where ligand bound in crystal structure
[9] = preliminary screen, compound at 200 μM, mean of 3-4 technical replicates, read-out: % competition in HTRF assay
[10] = crystal soak 10 mM, P43 crystals
[11] = crystal soak, soak concentration 10 mM, TRUE = ligand hit
[12] = occupancy estimate from PanDDA 1-BDC
[13] = Single dose, concentration 200 μM, read-out: SARS CoV-2 macrodomain HTRF assay: Average % competition
[14] = crystal soak concentration 10 mM, event 1
[15] = crystal soak concentration 10 mM, P43 crystals
[16] = crystal soak concentration 10 mM
[17] = Single dose, 200 μM, mean of three technical replicates
[18] = crystal soak concentration 3 mM, P43 crystals
[19] = crystal soak concentration 3 mM
[20] = X-ray crystal structure determined (TRUE)
[21] = site of ligand in X-ray crystal structure
[22] = SARS CoV-2 macrodomain HTRF assay, dose-response
[23] = Single dose, concentration 200 μM, read-out: Average % competition

Row | Compound | Occupancy difference (refined_occupancy - 2*(1-BDC)) [1] | Refined ligand occupancy (%) [1] | 1-BDC [1] | Total number of conformations [1] | 2*(1-BDC) (%) [1, 7] | inhibition at 200 µM [2, 9] | X-ray crystallography: Binding site [1] | Hill slope ([2]; HTRF dose-response fit, Mac1) | SARS CoV-2 macrodomain HTRF assay: Hillslope [2] | 2*(1-BDC) (%) [1, 12] | PanDDA run, DMSO background map: 1-BDC ([1]; event 1) | further results
1 | CC(C)n1nnnc1SCc1c(C(=O)O)sc2cccc(F)c12 [AVI-291] | 0 | 68% | 0.34 | 1 | 68% | 41% |  |  |  |  |  | X-ray crystal structure [1, 3]: TRUE; Comment ([1]; comment on ligand modeling / Phe132 loop density): Second ligand conformation, not modeled, DMSO x2; PanDDA run, DMSO background map: Hit [1, 4]: TRUE; PanDDA run, DMSO background map: Modeled [1, 4]: TRUE; PanDDA run, DMSO background map: 1-BDC ([1]; crystal soak concentration 20 mM, event 1): 0.34; Pandda run, overall: Hit [1, 5]: TRUE; Pandda run, overall: Modeled [1, 5]: TRUE; Pandda run, overall: Modeling comment [1, 5]: Second ligand conformation, not modeled, DMSO x2; Pandda run, overall: Modeling comment [1, 6]: Duplicate, not modeled; Pandda run, overall: Hit ([1]; crystal soak, soak concentration 10 mM, P43 crystals, TRUE = ligand-binding event identified): TRUE; PanDDA run, DMSO background map: Hit [1, 6]: TRUE; PanDDA run, DMSO background map: 1-BDC ([1]; crystal soak, soak concentration 10 mM, event 1): 0.25; Binding site [1, 8]: Adenosine; IC50 ([2]; Dose-response, SARS CoV-2 macrodomain HTRF assay, read-out: IC50): > 1 mM; inhibition at 200 µM ([2]; Single dose, 200 μM, mean of three technical replicates, read-out: Average % competition): 41%
2 | C[C@H]1CC[C@H](CO)N(c2ncnc3[nH]ccc23)C1 (racemic) [AVI-4063] | 18 | 50% | 0.16 | 1 | 32% |  | Adenosine | 1.1 | 1.1 |  |  | Hit (PanDDA run, overall) [1, 10]: TRUE; Hit (PanDDA run, DMSO background map) ([1]; crystal soak 10 mM): TRUE; 1-BDC (PanDDA run, DMSO background map) ([1]; crystal soak 10 mM, event 1): 0.21 and 0.16
3 | CC1(C)C[C@@H](CO)N(c2ncnc3[nH]ccc23)C1.O=C(O)C(F)(F)F [AVI-3704] |  |  | 0.33 | 1 |  | 90% | Adenosine | 1.1 | 1.1 | 66% |  | Pandda run, overall: Modeled [1, 6]: TRUE; Pandda run, overall: Hit [1, 11]: TRUE; PanDDA run, DMSO background map: 1-BDC ([1]; soak concentration 10 mM): 0.33; PanDDA run, DMSO background map: Hit ([1]; soak concentration 10 mM): TRUE; inhibition at 200 µM [2, 13]: 90%
4 | OC1(CNc2ncnc3[nH]ccc23)CCCC(C(F)(F)F)C1 (stereo not shown) [AVI-4309] | 0 | 40% | 0.2 | 1 | 40% |  | Adenosine | 1.4 | 1.4 |  | 0.2 | Hit (PanDDA run, overall) [1, 10]: TRUE; Hit (PanDDA run, DMSO background map) ([1]; crystal soak 10 mM): TRUE; 1-BDC (PanDDA run, DMSO background map) ([1]; crystal soak 10 mM, event 1): 0.21
5 | CC1CC(C(=O)O)CN(C(=O)CSc2ccc(O)cc2)C1 (stereo not shown) [AVI-334] |  |  |  |  |  |  |  |  |  |  | 0.12 | PanDDA run, DMSO background map: 1-BDC [1, 14]: 0.07; Pandda run, overall: Hit [1, 15]: TRUE; Pandda run, overall: Modeling comment [1, 15]: Weak density, not modeled; PanDDA run, DMSO background map: Hit [1, 16]: TRUE; Average % competition [2, 17]: 25%
6 | OCC1CC2(CCCC2)CN1c1ncnc2[nH]ccc12 (stereo not shown) [AVI-3708] |  |  | 0.32 | 1 |  | 90% | Adenosine | 1.1 | 1.1 | 64% |  | Pandda run, overall: Modeled [1, 6]: TRUE; Pandda run, overall: Hit [1, 11]: TRUE; PanDDA run, DMSO background map: 1-BDC ([1]; soak concentration 10 mM): 0.32; PanDDA run, DMSO background map: Hit ([1]; soak concentration 10 mM): TRUE; inhibition at 200 µM [2, 13]: 90%
7 | OC1(CNc2ncnc3[nH]ccc23)CCCCC1 [AVI-6217] | 16 | 60% | 0.22 | 1 | 44% |  | Adenosine | 1.1 | 1.1 |  | 0.22 | 
8 | Cc1ccc2c(c1)CC[C@@H](C(=O)Nc1nnc3n1CCCC3)O2 [AVI-329] |  |  | 0.07 | 1 |  |  |  |  |  | 14% | 0.17 | X-ray crystal structure [1, 3]: TRUE; Pandda run, overall: Hit [1, 18]: TRUE; Pandda run, overall: Modeled [1, 18]: TRUE; Pandda run, overall: Modeling comment [1, 18]: Duplicate, not modeled; PanDDA run, DMSO background map: Hit [1, 19]: TRUE; PanDDA run, DMSO background map: Modeled [1, 19]: TRUE; PanDDA run, DMSO background map: 1-BDC ([1]; crystal soak concentration 3 mM, event 1): 0.08 and 0.07; Binding site [1, 8]: Distal; Average % competition [2, 17]: 9%
9 | OC1(CNc2ncnc3[nH]ccc23)CC2CCC1CC2 (stereo not shown) [AVI-4320] | 0 | 28% | 0.14 | 1 | 28% |  | Adenosine | 1.1 | 1.1 |  | 0.14 | 
10 | OCC(Nc1ncnc2[nH]ccc12)C1CC1 (stereo not shown) [AVI-3651] |  |  | 0.18 | 1 |  | 85% |  | 1.2 |  | 36% |  | X-ray crystal structure [1, 20]: TRUE; Pandda run, overall: Hit [1, 10]: TRUE; Pandda run, overall: Modeled [1, 10]: TRUE; PanDDA run, DMSO background map: 1-BDC ([1]; crystal soak 10 mM): 0.18; PanDDA run, DMSO background map: Hit ([1]; crystal soak 10 mM): TRUE; Binding site [1, 21]: Adenosine; Hill slope [2, 22]: 1.2; inhibition at 200 µM [2, 23]: 85%
11 | Cc1c[nH]c2ncnc(NCC3(O)CCSCC3)c12 [AVI-4195, 4-(((5-methyl-7H-pyrrolo[2,3-d]pyrimidin-4-yl)amino)methyl)tetrahydro-2H-thiopyran-4-ol] | 0 | 28% | 0.14 | 1 | 28% |  | Adenosine | 1.2 | 1.2 |  |  | PanDDA run, DMSO background map: 1-BDC [1, 14]: 0.14; Pandda run, overall: Hit [1, 15]: TRUE; Pandda run, overall: Modeled [1, 15]: TRUE; Pandda run, overall: Modeling comment [1, 15]: Duplicate, not modeled; PanDDA run, DMSO background map: Hit [1, 16]: TRUE; PanDDA run, DMSO background map: Modeled [1, 16]: TRUE
12 | CCC(CC)(CO)Nc1ncnc2[nH]ccc12 [AVI-3695] |  |  | 0.12 | 2 |  | 89% |  | 1.3 |  | 24% |  | X-ray crystal structure [1, 20]: TRUE; Pandda run, overall: Hit [1, 10]: TRUE; Pandda run, overall: Modeled [1, 10]: TRUE; PanDDA run, DMSO background map: 1-BDC ([1]; crystal soak 10 mM): 0.12; PanDDA run, DMSO background map: Hit ([1]; crystal soak 10 mM): TRUE; Binding site [1, 21]: Adenosine; Hill slope [2, 22]: 1.3; inhibition at 200 µM [2, 23]: 89%
